What all share (assay): DTP human tumour cell line panel, 48 h
Experiment [1] has as its system RPMI-8226 leukemia.
Experiment [2] deals with SK-MEL-5 melanoma.
For experiment [3], the system named is UACC-257 melanoma.
In experiment [4] the test system is SK-MEL-2 melanoma.
Experiment [5] deals with CAKI-1 renal.
The test system of experiment [6] is HCC-2998 colon.
Experiment [7] relates to HCT-116 colon.
Experiment [8] relates to SF-268 CNS.
In experiment [9] the test system is RXF 393 renal.
Experiment [10] relates to OVCAR-3 ovarian.

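Five compound concentrations were applied to cells in 96-well plates for 48 hours; endpoints were derived by simple linear interpolation of the resulting dose-response curve. GI50 is the concentration that inhibits growth by half. At the TGI there is no net growth.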

As usually defined, the TGI is the concentration at which net growth stops. In the case of `CN(C)c1ccc(C(c2ccc(Cl)cc2)c2ccc(N(C)C)cc2)cc1`, the TGI in experiment [1], in [2], in experiment [3], in [4], in [5] and in [6] was above 100 µM each time. Moreover, the total growth inhibition concentration (TGI) in experiment [7], in [8], in experiment [9] and in [10] was above 100 µM in each case.

As to `CCOC(=O)C(CNc1ccc(O)cc1)NC(=O)c1ccccc1` (stereo not given), the TGI in experiment [1], in experiment [2], in experiment [3], in experiment [4], in experiment [5] and in experiment [6] was above 100 µM throughout. The TGI in experiment [7], in experiment [8], in experiment [9] and in experiment [10] was above 100 µM throughout.

As a reminder, the GI50 is the concentration that inhibits growth by half. On to `COc1cccc(C2C3=C(COC3=O)N(CCO)c3cc4c(cc32)OCO4)c1` (stereo not given), for which the GI50 in [1] was 0.706 µM; in experiment [2] it was 0.177 µM; in experiment [3], 0.124 µM; in experiment [4], 0.142 µM; in experiment [5], 0.449 µM; in experiment [6], 0.211 µM. Further, the GI50 is 0.235 µM in experiment [7], 1.53 µM in experiment [8], 0.0994 µM in [9] and 0.121 µM in experiment [10]. The TGI is above 50 µM in experiment [1]; above 50 µM in experiment [2]; above 50 µM in experiment [3]; 0.43 µM in experiment [4]; above 50 µM in [5]; 1.2 µM in experiment [6]. Moreover, the total growth inhibition concentration (TGI) is above 16.1 µM in experiment [7], 49.2 µM in [8], 0.352 µM in experiment [9] and 0.286 µM in experiment [10].

Consider `C[C@]12CCNC(=O)C=C1CC[C@@H]1C2CC[C@@]2(C)C1CC[C@@H]2OC(=O)COc1ccc(N(CCCl)CCCl)cc1` (stereo not given in full), for which the TGI in experiment [1] turned out to be 47.6 µM; in experiment [2], 24.6 µM; in experiment [3], 37.2 µM; in experiment [4], 44.4 µM; in [5], 23 µM; in experiment [6], 15 µM. Besides, the TGI is 13.9 µM in experiment [7], 23.8 µM in [8], 18 µM in [9] and 8.25 µM in [10].

For `c1ccc([As]=[As]c2ccccc2)cc1` (stereo not given), the GI50 in [1] was 0.543 µM; in [2] it was 1.41 µM; in [3], 1.28 µM; in experiment [4] it was 1.62 µM; in experiment [5] it was 1.31 µM; in [6], 1.72 µM. In addition, the GI50 was 1.14 µM in experiment [7], 0.886 µM in experiment [8], 0.58 µM in experiment [9] and 0.676 µM in [10]. In addition, the concentration for total growth inhibition (TGI) in experiment [1] worked out at 2.97 µM; in experiment [2], 3.57 µM; in [3], 2.88 µM; in experiment [4], 3.47 µM; in experiment [5], 3.22 µM; in experiment [6], 3.41 µM. For the same molecule, the TGI was found to be 3.7 µM in experiment [7], 2.45 µM in experiment [8], 2.04 µM in experiment [9] and 1.85 µM in experiment [10].

As for `CN(/N=C/c1cccc2cccnc12)c1c([N+](=O)[O-])cc([N+](=O)[O-])cc1[N+](=O)[O-]`, the TGI in experiment [1], in [2], in experiment [3], in experiment [4], in [5] and in [6] was above 100 µM each time. For the same molecule, the TGI in experiment [7], in experiment [8], in experiment [9] and in [10] was above 100 µM throughout.

`O=C(/C=C/C12c3ccccc3C(c3ccccc31)C1C(=O)NC(=O)C12)c1ccc(Cl)cc1` (stereo not given): the GI50 in [1] is 1.66 µM; in [2], 1.7 µM; in experiment [3], 1.56 µM; in experiment [4] it was 1.81 µM; in experiment [5] it was 1.24 µM; in experiment [6], 1.69 µM. The GI50 in experiment [7] is 1.23 µM; in experiment [8] it was 1.99 µM; in [9] it was 1.2 µM; in experiment [10], 1.63 µM. Also, the TGI is 4.5 µM in experiment [1]; 3.08 µM in experiment [2]; 3.45 µM in experiment [3]; 3.71 µM in experiment [4]; 2.52 µM in experiment [5]; 3.37 µM in experiment [6]. The TGI was 2.61 µM in experiment [7], 5.31 µM in experiment [8], 2.56 µM in experiment [9] and 3.26 µM in [10].

For the origin of these results see PubChem BioAssay (NCI).
